Measurements: US20220324835A1 (Nurix Therapeutics, Inc., priority 2018, published 2022)

How the values were obtained:
Assay type in all cases: cell-based
[1] = system: primary human total T-cells; assay: T-cell activation assessed by cell proliferation (Cell Trace Violet)
Summary of the method: (§1)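 Primary human T-cells (>95% CD3+, negative selection from PBMC) were pre-incubated with inhibitor (e.g. 10, 1.11, 0.123 μM; DMSO <0.1%) for 1 h at 37 °C. They were then stimulated 48 h with plate-bound OKT3 (coated at 10 μg/mL), alone or with 5 μg/mL soluble anti-CD28. Results are fold change over uninhibited, identically stimulated cells.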

[2] = system: primary human total T-cells; assay: T-cell activation assessed by CD69 expression
Summary of the method: as §1

[3] = system: primary human total T-cells; assay: T-cell activation assessed by cytokine secretion (GM-CSF, IFNγ, TNFα)
Summary of the method: as §1

[4] = CD3/CD28 stimulation, CD4 T-cells, read-out: % CP (cell proliferation) (CD4)
[5] = CD3/CD28 stimulation, CD8 T-cells, read-out: % CP (cell proliferation) (CD8)
[6] = CD3 alone stimulation, CD8 T-cells, read-out: % CP (cell proliferation) (CD8)
[7] = CD3/CD28 stimulation, CD4 T-cells, read-out: % CD69+ (CD4)
[8] = CD3/CD28 stimulation, CD8 T-cells, read-out: % CD69+ (CD8)
[9] = CD3 alone stimulation, CD4 T-cells, read-out: % CD69+ (CD4)
[10] = CD3 alone stimulation, CD8 T-cells, read-out: % CD69+ (CD8)
[11] = CD3/CD28 stimulation, read-out: GM-CSF secretion
[12] = CD3/CD28 stimulation, read-out: IFNγ secretion
[13] = CD3/CD28 stimulation, read-out: TNFα secretion
[14] = CD3 alone stimulation, read-out: GM-CSF secretion
[15] = CD3 alone stimulation, read-out: IFNγ secretion
[16] = CD3 alone stimulation, read-out: TNFα secretion

| Compound | fold induction at 1.11 µM [1, 4] | fold induction at 10 µM [1, 4] | fold induction at 1.11 µM [1, 5] | fold induction at 10 µM [1, 5] | fold induction at 1.11 µM [1, 6] | fold induction at 10 µM [1, 6] | fold induction at 1.11 µM [2, 7] | fold induction at 10 µM [2, 7] | fold induction at 1.11 µM [2, 8] | fold induction at 10 µM [2, 8] | fold induction at 1.11 µM [2, 9] | fold induction at 10 µM [2, 9] | fold induction at 1.11 µM [2, 10] | fold induction at 10 µM [2, 10] | fold induction at 1.11 µM [3, 11] | fold induction at 1.11 µM [3, 12] | fold induction at 1.11 µM [3, 13] | fold induction at 10 µM [3, 11] | fold induction at 10 µM [3, 12] | fold induction at 10 µM [3, 13] | other results |
| --- | --- | --- | --- | --- | --- | --- | --- | --- | --- | --- | --- | --- | --- | --- | --- | --- | --- | --- | --- | --- | --- |
| Cn1cnnc1CC1(c2cccc(N3Cc4c(cc(CN5CC[C@H](C#N)C5)cc4C(F)(F)F)C3=O)c2)COC1 [Compound 422, (S)-1-((2-(3-(3-((4-methyl-4H-1,2,4-triazol-3-yl)methyl)oxetan-3-yl)phenyl)-3-oxo-7-(trifluoromethyl)isoindolin-5-yl)methyl)pyrrolidine-3-carbonitrile] | > 4 | > 4 | 2.01 to 3 | 3.01 to 4 | 3.01 to 4 | > 4 | 1.2 to 1.4 | 1.4 to 1.6 | 1.2 to 1.4 | 1.2 to 1.4 | > 1.6 | > 1.6 | 1.2 to 1.4 | 1.4 to 1.6 | 2.01 to 4 | 3.01 to 4 | 2.01 to 4 | > 4 | > 4 | 2.01 to 4 | fold induction at 1.11 µM [3, 14]: 2.01 to 4; fold induction at 1.11 µM [3, 15]: < 2; fold induction at 1.11 µM [3, 16]: ≤ 1.5; fold induction at 10 µM [3, 14]: 2.01 to 4; fold induction at 10 µM [3, 15]: 3.01 to 4; fold induction at 10 µM [3, 16]: 1.51 to 2 |
| Cn1cnnc1C(F)(F)[C@](C)(F)c1cccc(N2Cc3c(cc(C(=O)N4CC[C@H](O)C4)cc3C(F)(F)F)C2=O)c1 [Compound 438, 6-((S)-3-hydroxypyrrolidine-1-carbonyl)-2-(3-((R)-1,1,2-trifluoro-1-(4-methyl-4H-1,2,4-triazol-3-yl)propan-2-yl)phenyl)-4-(trifluoromethyl)isoindolin-1-one] | 3.01 to 4 | > 4 | < 2 | 3.01 to 4 | < 2 | > 4 | 1.2 to 1.4 | 1.4 to 1.6 | ≤ 1.2 | 1.2 to 1.4 | 1.2 to 1.4 | > 1.6 | ≤ 1.2 | 1.2 to 1.4 | 1.51 to 2 | < 2 | ≤ 1.5 | 2.01 to 4 | 2.01 to 3 | 2.01 to 4 | fold induction at 1.11 µM [3, 14]: ≤ 1.5; fold induction at 1.11 µM [3, 15]: < 2; fold induction at 1.11 µM [3, 16]: 2.01 to 4; fold induction at 10 µM [3, 14]: 2.01 to 4; fold induction at 10 µM [3, 15]: 2.01 to 3; fold induction at 10 µM [3, 16]: 1.51 to 2 |
| Cn1cnnc1C(F)(F)[C@](C)(F)c1cccc(N2Cc3c(cc(CN4CC[C@@H](F)C4)cc3C(F)(F)F)C2=O)c1 [Compound 450] | > 4 | > 4 | 2.01 to 3 | > 4 | > 4 | > 4 | 1.2 to 1.4 | 1.4 to 1.6 | 1.2 to 1.4 | 1.2 to 1.4 | 1.4 to 1.6 | > 1.6 | 1.2 to 1.4 | 1.4 to 1.6 | 2.01 to 4 | 2.01 to 3 | 2.01 to 4 | > 4 | > 4 | 2.01 to 4 | fold induction at 1.11 µM [3, 14]: 1.51 to 2; fold induction at 1.11 µM [3, 15]: < 2; fold induction at 1.11 µM [3, 16]: 1.51 to 2; fold induction at 10 µM [3, 14]: 2.01 to 4; fold induction at 10 µM [3, 15]: < 2; fold induction at 10 µM [3, 16]: 1.51 to 2 |
| COC1CN(Cc2cc3c(c(C(F)(F)F)c2)CN(c2cccc([C@@](C)(F)C(F)(F)c4nncn4C)c2)C3=O)C1 [Compound 452, (R)-6-((3-methoxyazetidin-1-yl)methyl)-2-(3-(1,1,2-trifluoro-1-(4-methyl-4H-1,2,4-triazol-3-yl)propan-2-yl)phenyl)-4-(trifluoromethyl)isoindolin-1-one] | > 4 | > 4 | 3.01 to 4 | > 4 | 3.01 to 4 | > 4 | 1.2 to 1.4 | 1.4 to 1.6 | 1.2 to 1.4 | 1.2 to 1.4 | 1.4 to 1.6 | > 1.6 | 1.2 to 1.4 | 1.4 to 1.6 | 2.01 to 4 | < 2 | 1.51 to 2 | 2.01 to 4 | 2.01 to 3 | 2.01 to 4 | fold induction at 1.11 µM [3, 14]: 1.51 to 2; fold induction at 1.11 µM [3, 15]: 3.01 to 4; fold induction at 1.11 µM [3, 16]: ≤ 1.5; fold induction at 10 µM [3, 14]: 2.01 to 4; fold induction at 10 µM [3, 15]: 3.01 to 4; fold induction at 10 µM [3, 16]: 1.51 to 2 |
| Cn1cnnc1C(F)(F)[C@](C)(F)c1cccc(N2Cc3c(cc(CN4CC[C@@H](C#N)C4)cc3C(F)(F)F)C2=O)c1 [Compound 455, (R)-1-((3-oxo-2-(3-((R)-1,1,2-trifluoro-1-(4-methyl-4H-1,2,4-triazol-3-yl)propan-2-yl)phenyl)-7-(trifluoromethyl)isoindolin-5-yl)methyl)pyrrolidine-3-carbonitrile] | > 4 | > 4 | 3.01 to 4 | > 4 | > 4 | > 4 | 1.2 to 1.4 | 1.4 to 1.6 | 1.2 to 1.4 | 1.2 to 1.4 | 1.4 to 1.6 | > 1.6 | 1.2 to 1.4 | 1.4 to 1.6 | 2.01 to 4 | > 4 | 2.01 to 4 | > 4 | > 4 | 2.01 to 4 | fold induction at 1.11 µM [3, 14]: 1.51 to 2; fold induction at 1.11 µM [3, 15]: 2.01 to 3; fold induction at 1.11 µM [3, 16]: ≤ 1.5; fold induction at 10 µM [3, 14]: 2.01 to 4; fold induction at 10 µM [3, 15]: 3.01 to 4; fold induction at 10 µM [3, 16]: 2.01 to 4 |
